Measurements from patent publication US8178551B2 (Green Cross Corporation, priority 2007, dated 2012).
Where a name gives a salt, the structure may show the parent alone.

tested on: MPTP-induced Parkinson's disease animal model; experiment: not given; conditions: daily injections, literature; cited from earlier work

Structure (SMILES)	neuroprotective property in MPTP models (DA neurons in substantia nigra pars compacta, striatal DA levels)
Oc1ccc2c(c1)[C@@]13CCCC[C@H]1[C@@H](C2)NCC3 [HM, (+)-3-hydroxymorphinan]	dopamine (DA) neurons in substantia nigra pars compacta have been protected and DA levels in striatum has been restored

tested on: not listed separately; experiment: Drug transport assay with MDCK monolayers (apparent permeability, Papp); format: in vitro ADME; conditions: dog, MDCK, apical to basolateral, 37° C.
Protocol: (§1) Experiment 1. Permeability Measurement by Performing a Drug Transport Assay with MDCK Monolayers
(§2) (+)-3-HM was dissolved in DMSO at 10 mM and stored at 4° C. MDCK cells were obtained from the ATCC (American Type Culture Collection, CCL-34). MDCK cells were maintained in DMEM (Dulbecco's MEM with high glucose) containing 1×NEAA (Non-essential amino acids), 10 mM HEPES, 100 units penicillin, 0.1 mg/ml streptomycin and 8% FBS. The cells were cultivated in T-75 flasks in a cell culture incubator at 37° C. MDCK cells were passaged twice per week. When the cells were 90% confluence, the cells were plated at 1×10^5 cells/well in transwell. The cells were fed with fresh medium every other day. The Cells were grown to confluence on the transwell for 5 days. When the cells have reached confluence and are differentiated, they are ready to be used for transport studies. The TEER (Transepithelial electrical resistance) of each well was measured by Millicell-ERS system ohm meter. The electrode was immersed in 70% ethanol and PBS for 15 minutes. […] MDCK monolayers with TEER values >400Ω were used. After the each well was washed by using sterile HBSS (hank's buffered solution) and (+)-3-HM was diluted 100-fold in HBSS, the apical wells were filled with 200 ul of the test compounds. The basolateral wells were filled with 1 ml of HBSS buffer. Only 0.1% DMSO treated wells prepared to adjust for analysis. The cells were incubated at 37° C. for 1 hour. At the end of the transport period, the result samples were removed from the apical (150 ul) and basolateral (900 ul) wells. The representative compounds of Examples were conducted in same conditions.
(§3) Experiment 2. The HPLC Analysis and the Calculation of Papp
(§4) HPLC analyses were performed using a WATERS HPLC system. A ZORBAX Eclipse XDB-C18 (4.6×250 mm, 5 μm particle size) was used. The optimal operating conditions are as followed; Mobile phase A is composed of distilled water-acetonitrile (ACN) (9:1, v/v) with 0.1% trifluoroacetic acid (TFA), and mobile phase B is 90% acetonitrile with 0.1% TFA. All buffers were used after the 0.45 μm filtration.
(§5) The UV detection was performed at 280 nm or the fluorescence detection was performed at Excitation in 228 nm and Emission in 330 nm.
(§6) The concentration of A and B buffer was performed by the gradient method and the total analysis time was 38 min. The optimal operating conditions: elution gradient 0-10 min (10-50%), 10-20 min (50-90%), 20-25 min (90%), 25-27 min (90-10%), 27-38 min (10%). After the analysis of HPLC, the percentage of area of (+)-3-HM and the compound of Example 2 were calculated by remained concentration (μg/ml).
(§7) The apparent permeability coefficients (Papp), expressed in nm/sec, were calculated by the following equation: Permeability (Papp)=(Receiver Volume×Receiver Conc.)/(Filter surface area×Reaction Time×donor Conc.)×10^7.

Structure (SMILES)	Papp A→B at 1 h, 100 µM [×10⁻⁶ cm/s]
O=C(OCOc1ccc2c(c1)[C@]13CCCC[C@@H]1[C@H](C2)NCC3)OCC1CC1 [Example 4, (+)-Cyclopropylmethyl(morphinan-3-yloxy)methyl carbonate]	15.3
CC(C)COC(=O)OCOc1ccc2c(c1)[C@]13CCCC[C@@H]1[C@H](C2)NCC3 [Example 23, (+)-Isobutyl(morphinan-3-yloxy)methyl carbonate TFA]	20.3
Oc1ccc2c(c1)[C@@]13CCCC[C@H]1[C@@H](C2)NCC3 [HM, (+)-3-hydroxymorphinan]	3.33
CC(C)OC(=O)OCOc1ccc2c(c1)[C@]13CCCC[C@@H]1[C@H](C2)NCC3 [Example 2, (+)-Isopropyl(morphinan-3-yloxy)methyl carbonate]	26.2
O=C(OCOc1ccc2c(c1)[C@]13CCCC[C@@H]1[C@H](C2)NCC3)OCC1CCCC1 [Example 15, (+)-Cyclopentylmethyl(morphinan-3-yloxy)methyl carbonate TFA]	33.7
O=C(OCOc1ccc2c(c1)[C@]13CCCC[C@@H]1[C@H](C2)NCC3)OC1CCCCC1 [Example 8, (+)-Cyclohexyl(morphinan-3-yloxy)methyl carbonate]	19.7
O=C(OCOc1ccc2c(c1)[C@]13CCCC[C@@H]1[C@H](C2)NCC3)OC1CCC1 [Example 37, (+)-Cyclobutyl(morphinan-3-yloxy)methyl carbonate TFA]	13.6
CCC(C(=O)OCOc1ccc2c(c1)[C@]13CCCC[C@@H]1[C@H](C2)NCC3)c1ccccc1 (stereo partly drawn) [Example 72, (+)-(Morphinan-3-yloxy)methyl 2-phenylbutanoate TFA]	13.1
CCC(C)C(=O)OCOc1ccc2c(c1)[C@]13CCCC[C@@H]1[C@H](C2)NCC3 (stereo partly drawn) [Example 66, (+)-(Morphinan-3-yloxy)methyl 2-methylbutanoate TFA]	16.2
O=C(OCOc1ccc2c(c1)[C@]13CCCC[C@@H]1[C@H](C2)NCC3)OCC1CCCCC1 [Example 9, (+)-Cyclohexylmethyl(morphinan-3-yloxy)methyl carbonate]	48.7
CC(C)C(=O)OCOc1ccc2c(c1)[C@]13CCCC[C@@H]1[C@H](C2)NCC3 [Example 44, (+)-(Morphinan-3-yloxy)methyl isobutyrate]	21.2
CCCOC(=O)OCOc1ccc2c(c1)[C@]13CCCC[C@@H]1[C@H](C2)NCC3 [Example 3, (+)-(Morphinan-3-yloxy)methyl propyl carbonate]	21.9
CCC(C)OC(=O)OCOc1ccc2c(c1)[C@]13CCCC[C@@H]1[C@H](C2)NCC3 (single isomer, unassigned; (+)) [Example 25, (+)-sec-Butyl(morphinan-3-yloxy)methyl carbonate TFA]	20.3
CCCCC(CC)C(=O)OCOc1ccc2c(c1)[C@]13CCCC[C@@H]1[C@H](C2)NCC3 (stereo partly drawn) [Example 60, (+)-(Morphinan-3-yloxy)methyl 2-ethylhexanoate TFA]	20.2
O=C(OCOc1ccc2c(c1)[C@]13CCCC[C@@H]1[C@H](C2)NCC3)C1CC1 [Example 68, (+)-(Morphinan-3-yloxy)methyl cyclopropanecarboxylate TFA]	10.1
CCCC(C)OC(=O)OCOc1ccc2c(c1)[C@]13CCCC[C@@H]1[C@H](C2)NCC3 (stereo partly drawn) [Example 41, (+)-(Morphinan-3-yloxy)methyl pentan-2-yl carbonate TFA]	23.1
O=C(OCOc1ccc2c(c1)[C@]13CCCC[C@@H]1[C@H](C2)NCC3)OC1CCCC1 [Example 6, (+)-Cyclopentyl(morphinan-3-yloxy)methyl carbonate]	20.6
CC(Cc1ccccc1)OC(=O)OCOc1ccc2c(c1)[C@]13CCCC[C@@H]1[C@H](C2)NCC3 (stereo partly drawn) [Example 31, (+)-(Morphinan-3-yloxy)methyl 1-phenylpropan-2-yl carbonate TFA]	22.3
O=C(OCOc1ccc2c(c1)[C@]13CCCC[C@@H]1[C@H](C2)NCC3)C1CCCCC1 [Example 56, (+)-(Morphinan-3-yloxy)methyl cyclohexanoate TFA]	9.43
CCC(CC)C(=O)OCOc1ccc2c(c1)[C@]13CCCC[C@@H]1[C@H](C2)NCC3 [Example 54, (+)-(Morphinan-3-yloxy)methyl 2-ethylbutanoate TFA]	28.9
CC(C)CC(=O)OCOc1ccc2c(c1)[C@]13CCCC[C@@H]1[C@H](C2)NCC3 [Example 70, (+)-(Morphinan-3-yloxy)methyl 3-methylbutanoate TFA]	16.6
O=C(OCOc1ccc2c(c1)[C@]13CCCC[C@@H]1[C@H](C2)NCC3)OCC1CCC1 [Example 17, (+)-Cyclobutylmethyl(morphinan-3-yloxy)methyl carbonate TFA]	22.7
O=C(OCOc1ccc2c(c1)[C@]13CCCC[C@@H]1[C@H](C2)NCC3)C1CCCC1 [Example 58, (+)-(Morphinan-3-yloxy)methyl cyclopentanoate TFA]	6.05
CC(C)(C)C(=O)OCOc1ccc2c(c1)[C@]13CCCC[C@@H]1[C@H](C2)NCC3 [Example 105, (+)-(Morphinan-3-yloxy)methyl pivalate salicylic acid]	20.3
O=C(OCOc1ccc2c(c1)[C@]13CCCC[C@@H]1[C@H](C2)NCC3)OC1CCCCCC1 [Example 27, TFA]	23.4

tested on: MDCK monolayers; experiment: as above; format: in vitro ADME; conditions: apical to basolateral, 37° C., 1 hour
Protocol: as §1, §2, §3, §4, §5, §6, §7

Structure (SMILES)	Papp [×10⁻⁶ cm/s]
CC(C)OC(=O)OCOc1ccc2c(c1)[C@]13CCCC[C@@H]1[C@H](C2)NCC3 [Example 80, (+)-Isopropyl(morphinan-3-yloxy)methyl carbonate L-(+)-tartaric acid]	18.57

tested on: MDCK monolayers; experiment: not given; conditions: MDCK Papp; cited from earlier work

Structure (SMILES)	Permeability values for known drugs [×10⁻⁶ cm/s]
CC(=O)Nc1ccc(O)cc1 [acetaminophen]	35
CC(C(=O)O)c1cccc(C(=O)c2ccccc2)c1 (stereo not shown) [ketoprofen]	20

tested on: not given; experiment: not given; conditions: known drugs; cited from earlier work

Structure (SMILES)	human absorption [%]
C[C@@H]1C[C@H]2[C@@H]3CCC4=CC(=O)C=C[C@]4(C)[C@@]3(F)[C@@H](O)C[C@]2(C)[C@@]1(O)C(=O)CO [dexamethasone]	98
CC(=O)Nc1ccc(O)cc1 [acetaminophen]	94
